In data set [1] the test system is Mycosphaerella graminicola (Septoria tritici; SEPTTR). Description: Growth inhibition of Mycosphaerella graminicola in nutrient broth, 96-well microtiter plate, photometric. In kind it is cell-based. The note with it: 4 days. The source says: A synergistic effect exists whenever the action of an active ingredient combination is greater than the sum of the actions of the individual components. The action to be expected E for a given active ingredient combination obeys the so-called COLBY formula and can be calculated as follows (COLBY, S. R. “Calculating synergistic and antagonistic responses of herbicide combination”. Weeds, Vol. 15, pages 20-22; 1967): ppm=milligrams of active ingredient (=a.i.) per liter of spray mixture X=% action by active ingredient A) using p ppm of active ingredient Y=% action by active ingredient B) using q ppm of active ingredient. According to COLBY, the expected (additive) action of active ingredients A)+B) using p+q ppm of active ingredient is If the action actually observed (O) is greater than the expected action (E), then the action of the combination is super-additive, i.e. there is a synergistic effect. In mathematical terms, synergism corresponds to a positive value for the difference of (O-E). In the case of purely complementary addition of activities (expected activity), said difference (O-E) is zero. A negative value of said difference (O-E) signals a loss of activity compared to the expected activity. Mycosphaerella graminicola (Septoria tritici; […]): Conidia of the fungus from cryogenic storage are directly mixed into nutrient broth (PDB potato dextrose broth). After placing a (DMSO) solution of the test compounds into a microtiter plate (96-well format) the nutrient broth containing the fungal spores is added.

Data set [2] relates to Mycosphaerella arachidis (Cercospora arachidicola; MYCOAR). Description: Growth inhibition of Mycosphaerella arachidis in nutrient broth, 96-well microtiter plate, photometric at 620 nm. It counts as cell-based. The note with it: 8 days. From the text: A synergistic effect exists whenever the action of an active ingredient combination is greater than the sum of the actions of the individual components. The action to be expected E for a given active ingredient combination obeys the so-called COLBY formula and can be calculated as follows (COLBY, S. R. “Calculating synergistic and antagonistic responses of herbicide combination”. Weeds, Vol. 15, pages 20-22; 1967): ppm=milligrams of active ingredient (=a.i.) per liter of spray mixture X=% action by active ingredient A) using p ppm of active ingredient Y=% action by active ingredient B) using q ppm of active ingredient. According to COLBY, the expected (additive) action of active ingredients A)+B) using p+q ppm of active ingredient is If the action actually observed (O) is greater than the expected action (E), then the action of the combination is super-additive, i.e. there is a synergistic effect. In mathematical terms, synergism corresponds to a positive value for the difference of (O-E). In the case of purely complementary addition of activities (expected activity), said difference (O-E) is zero. A negative value of said difference (O-E) signals a loss of activity compared to the expected activity. Mycosphaerella arachidis (Cercospora arachidicola; MYCOAR): Conidia of the fungus from cryogenic storage are directly mixed into nutrient broth (PDB potato dextrose broth). After placing a (DMSO) solution of the test compounds into a microtiter plate (96-well format) the nutrient broth containing the fungal spores is added.

Data set [3] concerns Pyrenophora teres (PYRNTE). Description: Growth inhibition of Pyrenophora teres in nutrient broth, 96-well microtiter plate, photometric. The note with it: 3 days. It counts as cell-based. The source says: A synergistic effect exists whenever the action of an active ingredient combination is greater than the sum of the actions of the individual components. The action to be expected E for a given active ingredient combination obeys the so-called COLBY formula and can be calculated as follows (COLBY, S. R. “Calculating synergistic and antagonistic responses of herbicide combination”. Weeds, Vol. 15, pages 20-22; 1967): ppm=milligrams of active ingredient (=a.i.) per liter of spray mixture X=% action by active ingredient A) using p ppm of active ingredient Y=% action by active ingredient B) using q ppm of active ingredient. According to COLBY, the expected (additive) action of active ingredients A)+B) using p+q ppm of active ingredient is If the action actually observed (O) is greater than the expected action (E), then the action of the combination is super-additive, i.e. there is a synergistic effect. In mathematical terms, synergism corresponds to a positive value for the difference of (O-E). In the case of purely complementary addition of activities (expected activity), said difference (O-E) is zero. A negative value of said difference (O-E) signals a loss of activity compared to the expected activity. Pyrenophora teres ([…]): Conidia of the fungus from cryogenic storage are directly mixed into nutrient broth (PDB potato dextrose broth). After placing a (DMSO) solution of the test compounds into a microtiter plate (96-well format) the nutrient broth containing the fungal spores is added.

For data set [4], the system named is Alternaria solani (ALTESO). Description: Growth inhibition of Alternaria solani in nutrient broth, 96-well microtiter plate, photometric. In kind it is cell-based. The note with it: 3 days. The source says:
A synergistic effect exists whenever the action of an active ingredient combination is greater than the sum of the actions of the individual components. The action to be expected E for a given active ingredient combination obeys the so-called COLBY formula and can be calculated as follows (COLBY, S. R. “Calculating synergistic and antagonistic responses of herbicide combination”. Weeds, Vol. 15, pages 20-22; 1967): ppm=milligrams of active ingredient (=a.i.) per liter of spray mixture X=% action by active ingredient A) using p ppm of active ingredient Y=% action by active ingredient B) using q ppm of active ingredient. According to COLBY, the expected (additive) action of active ingredients A)+B) using p+q ppm of active ingredient is If the action actually observed (O) is greater than the expected action (E), then the action of the combination is super-additive, i.e. there is a synergistic effect. In mathematical terms, synergism corresponds to a positive value for the difference of (O-E). In the case of purely complementary addition of activities (expected activity), said difference (O-E) is zero. A negative value of said difference (O-E) signals a loss of activity compared to the expected activity. Alternaria solani ([…]): Conidia harvested from a freshly grown colony of the fungus are directly mixed into nutrient broth (PDB potato dextrose broth). After placing a (DMSO) solution of the test compounds into a microtiter plate (96-well format) the nutrient broth containing the fungal spores is added.

Setting [5] is: single active ingredient 0.0039 mg/L (ppm ai).
Setting [6] is: single active ingredient 0.0078 mg/L (ppm ai).
Where [7] appears, read: single active ingredient 0.0156 mg/L (ppm ai).
Setting [8] is: single active ingredient 0.0313 mg/L (ppm ai).
The mark [9] stands for this setting: single active ingredient 0.0625 mg/L (ppm ai).
[10] abbreviates: single active ingredient 0.125 mg/L (ppm ai).
Where [11] appears, read: single active ingredient 0.25 mg/L (ppm ai).
Where [12] appears, read: single active ingredient 0.5 mg/L (ppm ai).

Several values for one entry are separate records, joined by “and”; a condition that tells them apart may be missing. Identical values can stand only once.

Take `N#Cc1c(Cl)c(Cl)c(Cl)c(C#N)c1Cl` [Chlorothalonil, chlorothalonil]: the “Observed control in % (% Cobs)” value in data set [1] (setting [5]) is 3.0%; in data set [1] (setting [6]), 0.0%; in data set [1] (setting [7]) it was 0.7%; in data set [1] (setting [8]), 0.0%; in data set [2] (setting [8]), 7.6%; in data set [2] (setting [9]), 8.2%. Besides, the “Observed control in % (% Cobs)” value in data set [2] (setting [10]) turned out to be 9.9%.

In the case of `OC(Cc1ccccc1Cl)(Cn1nc[nH]c1=S)C1(Cl)CC1` (centres unmarked) [Prothioconazole, prothioconazole], the “Observed control in % (% Cobs)” value in data set [3] (setting [9]) stood at 28.9%; in data set [3] (setting [10]) it was 50.1%; in data set [3] (setting [11]) it was 66.6%; in data set [2] (setting [7]), 22.0%; in data set [2] (setting [8]) it was 59.1%.

As for `Cc1cc(C2CC2)nc(Nc2ccccc2)n1` [Cyprodinil, cyprodinil], the results for the “Observed control in % (% Cobs)” value in data set [3] (setting [9]) and in data set [3] (setting [10]) were 23.8% and 45.1%, respectively.

Regarding `CC(C1CC1)C(O)(Cn1cncn1)c1ccc(Cl)cc1` (centres unmarked) [Cyproconazole, cyproconazole], the “Observed control in % (% Cobs)” value in data set [3] (setting [9]) is 0.0%; in data set [3] (setting [10]), 0.0%; in data set [3] (setting [11]) it was 15.1%; in data set [1] (setting [5]), 2.3%; in data set [1] (setting [6]), 2.8%; in data set [1] (setting [7]), 4.7%. Also, the “Observed control in % (% Cobs)” value was 1.9% in data set [1] (setting [8]) and 0.6% in data set [1] (setting [9]).

In general, melting point refers to the temperature, or range, at which the solid turns liquid. `Cc1nnc(Cl)c(-c2c(F)cccc2Cl)c1-c1ccc(Cl)nc1` [Compound A-1.2, 3-chloro-5-(6-chloro-pyridin-3-yl)-6-methyl-4-(2-chloro-6-fluoro-phenyl)-pyridazine] had a melting point of 166 to 167 °C.

On to mancozeb, for which the “Observed control in % (% Cobs)” value in data set [4] (setting [11]) is given as 0.7%.

For the compound `CO/C=C(/C(=O)OC)c1ccccc1Oc1cc(Oc2ccccc2C#N)ncn1` [Azoxystrobin, azoxystrobin], the figures for the “Observed control in % (% Cobs)” value in data set [2] (setting [8]) and in data set [2] (setting [9]) were 44.8% and 76.4%, respectively.

`Cc1nnc(Cl)c(-c2c(F)cc(F)cc2F)c1-c1ccc(Cl)nc1` [Compound A-1.1, 3-chloro-5-(6-chloro-pyridin-3yl)-6-methyl-4-(2,4,6-trifluoro-phenyl)-pyridazine] had a melting point of 182 to 183 °C. Besides, the “Observed control in % (% Cobs)” value in data set [4] (setting [11]) is 13.3% and 7.0%. Also, the “Observed control in % (% Cobs)” value in data set [4] (setting [12]) is 28.4% and 39.9%. The “Observed control in % (% Cobs)” value in data set [4] (single active ingredient 1.0 mg/L (ppm ai)) turned out to be 38.8%. Further, in data set [1] (setting [7]), the “Observed control in % (% Cobs)” value was 1.4% and 0.3% and 1.6% and 3.4%. The “Observed control in % (% Cobs)” value in data set [1] (setting [8]) was 3.7% and 5.3% and 6.3%. In addition, in data set [1] (setting [9]), the “Observed control in % (% Cobs)” value was 14.9% and 13.0% and 15.1% and 13.7%. Further, in data set [1] (setting [10]), the “Observed control in % (% Cobs)” value was 59.1% and 67.2% and 58.5% and 80.1%. Also, the “Observed control in % (% Cobs)” value in data set [2] (setting [8]) is 6.7%. Further, the “Observed control in % (% Cobs)” value in data set [2] (setting [9]) is 3.5% and 5.1%. Further, the “Observed control in % (% Cobs)” value in data set [2] (setting [11]) is 51.3% and 56.5%.

On to `CC1COC(Cn2cncn2)(c2ccc(Oc3ccc(Cl)cc3)cc2Cl)O1` (centres unmarked) [Difenoconazole, difenoconazole], for which the “Observed control in % (% Cobs)” value is on record as 37.6% in data set [4] (setting [9]), 36.9% in data set [4] (setting [10]) and 66.5% in data set [2] (setting [7]).

Consider `Fc1ccc([C@]2(Cn3cncn3)O[C@H]2c2ccccc2Cl)cc1` (racemic) [Epoxiconazole, epoxiconazole], for which the “Observed control in % (% Cobs)” value came out at 0.0% in data set [4] (setting [9]); 24.3% in data set [4] (setting [10]); 28.9% in data set [4] (setting [11]); 6.8% in data set [1] (setting [9]); 18.0% in data set [1] (setting [10]); 36.8% in data set [1] (setting [11]). The “Observed control in % (% Cobs)” value in data set [1] (setting [12]) was determined as 51.8%.

As to `COc1nnc(C)c(-c2ccc(Cl)nc2)c1-c1c(F)cc(F)cc1F` [Compound A-1.3, 4-(6-chloro-pyridin-3-yl)-6-methoxy-3-methyl-5-(2,4,6-trifluoro-phenyl)-pyridazine], the melting point lay within 123 to 124 °C.

With `CN1COCN(Cc2cnc(Cl)s2)/C1=N\[N+](=O)[O-]` [Thiomethoxam, thiamethoxam], the “Observed control in % (% Cobs)” value in data set [3] (setting [9]) was determined as 0.0%; in data set [3] (setting [10]), 0.0%; in data set [3] (setting [11]) it was 0.0%; in data set [1] (setting [5]), 1.8%; in data set [1] (setting [6]), 1.6%; in data set [1] (setting [7]), 0.0%. The “Observed control in % (% Cobs)” value in data set [1] (setting [8]) stood at 2.9%; in data set [1] (setting [9]) it was 0.0%.

For the origin of these results see US20110142802A1, “FUNGICIDAL COMPOSITIONS” (SYNGENTA CROP PROTECTION, INC., priority 2008, published 2011).
